# Key:
# [1] = test system: B cells (CD20-positive CD3-negative cells) of human PBMC; test: B cell activation using human PBMC (CD69-positive signal, FACS); assay type: cell-based; conditions: anti-IgM antibody 1 μg/mL / IL-4 3 ng/mL, 22 hours
# Experimental: (§1) Measurement of B Cell Activation or T Cell Activation Using Human PBMC
# (§2) A 10 mmol/L solution of the test compound in DMSO was dispensed into a 96-well plate (Nunc) and a 5× dilution series was prepared using DMSO. A 100× concentration test compound dilution solution was prepared by an additional 10× dilution with RPMI1640 medium (contained 10% HI-FBS, 1% penicillin). Human peripheral blood mononuclear cells (PBMC) were diluted with the medium to provide a density of 2×10^6 cells/mL. 396 μL of the cell suspension was added to a 96-well plate into which 4 μL of the 100× concentration test compound dilution solution or the solvent (10% DMSO) had already been introduced and incubation was performed for 10 minutes at 37° C. and 5% CO2. 10 μL of an anti-IgM antibody (Southern Biotech)/IL-4 (R & D Systems) solution or an anti-CD3/CD28 antibody bead suspension (Invitrogen Corporation) was added to a 96-well plate and 90 μL of the cell suspension prepared as described above was also added (final concentrations: anti-IgM antibody=1 μg/mL, IL-4=3 ng/mL, and anti-CD3/CD28 antibody beads=2×10^6 beads/mL). 10 μL of the medium was added to the unstimulated sample wells in place of these stimulating substances, and standing at 37° C. and 5% CO2 was again performed. Incubation was carried out for 16 hours in the case of the evaluation of T cell activation and for 22 hours in the case of the evaluation of B cell activation. 100 μL Cytofix Buffer (BD Biosciences) was added; holding for 15 minutes at 37° C. was performed; centrifugation for 10 minutes at 1500 rpm was carried out; and the supernatant was removed. 200 μL of Perm buffer II (BD Biosciences) at −20° C. was added; holding for 30 minutes on ice was performed; centrifugation for 10 minutes at 1500 rpm was carried out; and the supernatant was removed. 0.5 mL Stain buffer (BD Biosciences) was added and centrifugation was carried out for 10 minutes at 1500 rpm. 100 μL of a mixed antibody solution was added and incubation was performed for 30 minutes on ice in the dark. The antibody was the 10× dilution with Stain Buffer of the 1:1:1 mixture of PerCP-labeled anti-CD3 antibody (BD Biosciences), AF488-labeled anti-CD20 antibody (BD Biosciences), and PE-labeled anti-CD69 antibody (BD Biosciences). 0.4 mL Stain Buffer was added and the supernatant was removed. […] The CD69-positive signal (average fluorescence intensity) of the CD20-positive CD3-negative cells (B cells) or CD3-positive CD20-negative cells (T cells) was measured. After subtracting the value for the unstimulated sample, the % inhibition with reference to the value for the stimulated control sample was determined. The % inhibition was graphically plotted using Prism (ver. 5.01 J, GraphPad Software) and the IC50 value was determined.
# Lck = Lck (Homo sapiens (Human), UniProt P06239); test: Lck inhibitory activity, selectivity for Btk (Z'-LYTE kinase assay); assay type: biochemical; conditions: ratio of the IC50 values of the individual kinases
# Experimental: (§3) The inhibitory activity for other kinases (for example, Lck, Fyn, and LynA (all from Invitrogen Corporation) was measured in the same manner as described above using the particular kinase in place of the Btk.
# LynA = LynA (Homo sapiens (Human), UniProt P07948); test: LynA inhibitory activity, selectivity for Btk (Z'-LYTE kinase assay); assay type: biochemical; conditions: ratio of the IC50 values of the individual kinases
# Experimental: as §3
# Fyn = Fyn (Homo sapiens (Human), UniProt P06241); test: Fyn inhibitory activity, selectivity for Btk (Z'-LYTE kinase assay); assay type: biochemical; conditions: ratio of the IC50 values of the individual kinases
# Experimental: as §3
# Human liver cells = test: Cytotoxicity in cultured human hepatoma cells (ATP concentration, Celltiter Glo); assay type: cell-based; conditions: 50% decline in ATP concentration, exposure for 24 hours, read-out: Toxicity for human liver cells (IC50 (μM))
# Experimental: Measurement of the Cytotoxicity and Ability to Reduce the Mitochondrial Membrane Potential in Cultured Human Hepatoma Cells
# Human liver cells were seeded into a collagen-coated 96-well plate at a cell density of 30,000 cells/well and incubation was carried out overnight in an incubator at 37° C. in 5% CO2-95% air. The cultured cells were stained for 1 hour with 5,5′,6,6′-tetrahydro-1,1′,3,3′-tetramethyl-benzamidazolocarbocyanine iodide (JC-1) followed by treatment with the test compound. The test compound was dissolved in DMSO and then diluted with the liquid culture medium Hepatocyte Culture Medium (HCM) and added to the cells. The test compound treatment concentrations were 0, 6.25, 12.5, 25, 50, 100, 200, and 400 μmol/L. After exposure to the test compound for 24 hours, measurement was performed with a SpectraMax plate reader (Molecular Devices, LLC) at an excitation wavelength of 485 nm and a fluorescence wavelength of 538 nm and an excitation wavelength of 544 nm and a fluorescence wavelength of 590 nm. The membrane potential was determined by the ratio between the 544 nm/590 nm measurement value and the 485 nm/538 nm measurement value. After this, the ATP concentration in the cells was measured using a Celltiter Glo luminescent assay kit (Promega Corporation) in order to evaluate the cell toxicity of the test compound. The cells were lysed by the assay buffer provided with the measurement kit and the concentration of the ATP released from the cells was measured using the luciferin-luciferase enzyme activity as the index. The emission was measured using a SpectraMax plate reader. […] The ability to lower the mitochondrial membrane potential of the test compounds and the cytotoxicity of the test compounds are given in Table 3 below.
# [2] = Stability in the human liver microsome; conditions: 0.5 mg/mL microsomes, NADPH, 15 minutes at 37° C.
# Experimental: Evaluation of the Stability in the Rat and Human Liver Microsome
# A 0.25 mmol/L solution was prepared by diluting the test compound (10 mmol/L DMSO solution, 5 μL) with an aqueous 50% acetonitrile solution (195 μL).
# 20 μL was collected immediately after the start and the reaction was stopped by the addition to 180 μL of acetonitrile that contained an internal standard (warfarin). 20 μL of this solution was stirred with 180 μL of an aqueous 50% acetonitrile solution on a filter plate for protein depletion followed by suction filtration, and the filtrate was used as the standard sample.
# The previously indicated reaction solution was incubated for 15 minutes at 37° C., and 20 μL was then added to 180 μL cold acetonitrile (contained the internal standard warfarin) to stop the reaction. 20 μL of this was stirred with 180 μL of an aqueous 50% acetonitrile solution on a filter plate for protein depletion followed by suction filtration, and the filtrate was used as the standard sample.
# [3] = test system: T cells (CD3-positive CD20-negative cells) of human PBMC; test: T cell activation using human PBMC (CD69-positive signal, FACS); assay type: cell-based; conditions: anti-CD3/CD28 antibody beads, 16 hours
# Experimental: as §1, §2
# Sequence of LynA (P07948 whole entry): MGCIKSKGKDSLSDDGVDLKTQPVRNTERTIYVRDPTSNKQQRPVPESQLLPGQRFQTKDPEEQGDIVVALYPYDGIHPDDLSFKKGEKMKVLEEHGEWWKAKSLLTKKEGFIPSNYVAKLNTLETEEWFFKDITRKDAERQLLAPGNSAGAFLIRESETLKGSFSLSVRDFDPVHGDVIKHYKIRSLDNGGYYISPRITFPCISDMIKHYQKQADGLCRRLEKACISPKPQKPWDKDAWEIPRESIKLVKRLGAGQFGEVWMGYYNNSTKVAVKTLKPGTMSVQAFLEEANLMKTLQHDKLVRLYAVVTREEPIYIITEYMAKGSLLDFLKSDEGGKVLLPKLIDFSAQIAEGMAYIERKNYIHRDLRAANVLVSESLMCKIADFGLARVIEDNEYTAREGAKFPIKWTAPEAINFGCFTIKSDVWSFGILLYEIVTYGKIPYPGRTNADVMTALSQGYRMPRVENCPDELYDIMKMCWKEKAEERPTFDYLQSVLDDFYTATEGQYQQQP
# Sequence of Lck (P06239 whole entry): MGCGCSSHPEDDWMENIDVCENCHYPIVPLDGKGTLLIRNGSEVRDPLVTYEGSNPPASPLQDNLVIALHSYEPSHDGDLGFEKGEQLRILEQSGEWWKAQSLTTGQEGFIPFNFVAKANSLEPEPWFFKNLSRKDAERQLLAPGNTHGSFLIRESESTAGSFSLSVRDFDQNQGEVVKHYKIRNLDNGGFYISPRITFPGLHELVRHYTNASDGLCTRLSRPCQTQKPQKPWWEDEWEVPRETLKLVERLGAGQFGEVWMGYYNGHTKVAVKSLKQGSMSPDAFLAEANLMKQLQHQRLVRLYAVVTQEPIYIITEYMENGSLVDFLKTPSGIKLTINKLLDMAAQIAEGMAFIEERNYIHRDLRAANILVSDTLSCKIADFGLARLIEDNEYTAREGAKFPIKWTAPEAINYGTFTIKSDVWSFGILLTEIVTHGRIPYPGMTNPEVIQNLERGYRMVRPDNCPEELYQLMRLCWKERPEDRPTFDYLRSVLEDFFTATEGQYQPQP
# Sequence of Fyn (P06241 whole entry): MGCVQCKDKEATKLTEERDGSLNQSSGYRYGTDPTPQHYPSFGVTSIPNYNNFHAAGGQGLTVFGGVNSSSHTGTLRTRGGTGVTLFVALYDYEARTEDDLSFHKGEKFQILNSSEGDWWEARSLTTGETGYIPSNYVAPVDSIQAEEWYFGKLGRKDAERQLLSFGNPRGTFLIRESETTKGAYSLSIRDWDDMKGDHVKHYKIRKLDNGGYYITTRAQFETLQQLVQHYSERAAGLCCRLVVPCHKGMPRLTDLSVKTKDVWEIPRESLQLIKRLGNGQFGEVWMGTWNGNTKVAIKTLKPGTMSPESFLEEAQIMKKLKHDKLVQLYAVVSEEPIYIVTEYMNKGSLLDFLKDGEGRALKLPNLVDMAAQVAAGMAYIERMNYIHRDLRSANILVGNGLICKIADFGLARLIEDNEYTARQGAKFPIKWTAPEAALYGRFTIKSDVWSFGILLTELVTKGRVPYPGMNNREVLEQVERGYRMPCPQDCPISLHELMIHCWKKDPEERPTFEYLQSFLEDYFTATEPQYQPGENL
structure (smiles),measurement,setting,value
"C=CC(=O)N1CC(n2c(=O)n(-c3ccc(Oc4ccccc4)cc3)c3c(N)ncnc32)C1 [Example 8, 9-(1-acryloyl-3-azetidinyl)-6-amino-7-(4-phenoxyphenyl)-7,9-dihydro-8H-purin-8-one]",IC50,[1],0.021 µM
same,Lck[IC50]/Btk[IC50],Lck,80
same,LynA[IC50]/Btk[IC50],LynA,459
same,Fyn[IC50]/Btk[IC50],Fyn,453
same,IC50,Human liver cells,290 µM
same,Residual ratio (%) in the human liver microsome,[2],87.0%
same,IC50,[3],> 10 µM

# — patent US9879013B2, “Purinone derivative” (ONO PHARMACEUTICAL CO., LTD., priority 2010, dated 2018)
